Data published in patent US8518989B2, “Prodrugs of short-chain fatty acids and treatment methods” (Georgia Health Sciences University Research Institute, Inc., priority 2005, dated 2013).

Tests used:
[1] = tested on: all three isoforms of NOS; conditions: read-out: Km for arginine; cited from earlier work
[2] = tested on: MCF7 cells transfected with SMCT1 cDNA; experiment: Colony formation assay in MCF7 cells transfected with SMCT1 cDNA; assay type: cell-based, human; conditions: SMCT1-expressing MCF7 cells
[3] = tested on: HDAC; experiment: HDAC activity in a cell-free system with MCF7 cell lysate; assay type: biochemical, human
Method: Measurement of HDAC activity in a cell-free system: This was done using a commercially available assay kit (BioVision). MCF7 cell lysate was used as a source of HDAC activity. 50 μg of lysate protein was incubated with various monocarboxylates (1 mM), or trichostatin A (20 μM), and the reaction was initiated by the addition of HDAC substrate. The reaction was then terminated and the deacetylated product was measured according to the manufacturer's instructions. The activity is expressed in nmoles of deacetylated product formed per μg of MCF7 cell lysate protein per 30 min.

[4] = tested on: MCF7, T47D, and ZR75.1; experiment: Apoptosis in breast tumor cell lines (FACS, sub-G1); assay type: cell-based, human
Method: (§1) Cell cycle analysis: Cells were fixed in 50% ethanol, treated with 0.1% sodium citrate, 1 mg/ml RNase A, and 50 μg/ml propidium iodide, and subjected to FACS (Becton Dickinson FacsCaliber) analysis. Cells with DNA content below Cl were scored as apoptotic population.

[5] = tested on: SMCT1 and C/EBPδ expression; experiment: Induction of SMCT1 and C/EBPδ expression in MCF7 cells (RT-PCR); assay type: cell-based, human; conditions: NaB 5 mM, TSA 1 μM, MAA 5 mM, VPA 2 mM, 18 or 24 h
Method: RT-PCR: Two μg of RNA was reverse transcribed using the Gene Amp PCR system (Roche) according to the manufacturer's instructions. Amplification of cDNA corresponding to mouse [NT] (sense) (SEQ ID NO:9), [NT] (anti-sense) (SEQ ID NO: 10)], mouse [NT] (sense) (SEQ ID NO:11), [NT] (anti-sense) (SEQ ID NO:12)], human [NT] (sense) (SEQ ID NO:13), [NT] (anti-sense) (SEQ ID NO:14)], and human C/EBPδ [[NT] (sense) (SEQ ID NO:15), [NT] (anti-sense) (SEQ ID NO:16)] was carried out using HPRT1 (hypoxanthine guanine phosphoribosyl transferase 1) as an internal control.

[6] = tested on: HMEC, HBL100, and MCF10A; experiment: Apoptosis in non-transformed mammary epithelial cell lines (FACS, sub-G1); assay type: cell-based, human; conditions: normal mammary epithelial cells expressing SMCT1
Method: as §1

For `N=C(N)NCCC[C@H](N)C(=O)O` [arginine], the Km [1] is listed as 3 to 30 µM.
With `CC(O)C(=O)O` (stereo not shown) [lactate] the “Effect on cell growth / apoptosis” value [2] was “no effect on cell growth” and the “HDAC inhibition (in words)” value [3] was “does not”.
With `COCC(=O)O` [methoxyacetate, methoxyacetic acid] the Induction of apoptosis [4] was “do not have any effect on apoptosis” and the “Induction of SMCT1 and C/EBPδ expression” value [5] was “no or little activity”.
With `CC(/C=C/C(=O)NO)=C\[C@@H](C)C(=O)c1ccc(N(C)C)cc1` [trichostatin A] the Induction of apoptosis [4] was “cause apoptosis specifically in tumor cell lines”, the Induction of apoptosis [6] was “does not induce apoptosis” and the “Induction of SMCT1 and C/EBPδ expression” value [5] was “induce the expression of both genes”.
For `CCCC(CCC)C(=O)O` [valproate, valproic acid], the Induction of apoptosis [4] was “do not have any effect on apoptosis” and the “Induction of SMCT1 and C/EBPδ expression” value [5] was “no or little activity”.
